PMC7156724, “Potent BRD4 inhibitor suppresses cancer cell-macrophage interaction” (Nature Communications, 2020)
Several values for one entry are separate records, joined by “and”; a condition that tells them apart may be missing. Equal entries are not always repeated. Where two headings read alike, the source gives them in different places.

Legend:
[1] = In vivo pharmacokinetics study, mouse
Protocol: (§1) 4–6 weeks old female BALB/c nude mice were used for most experiments, with the exception of 6–8 weeks old female C57BL/6 mice were used for B16F10 experiments, and 6–8 weeks old male BALB/c nude mice and SD rats were used for pharmacokinetic experiments. All animals were purchased from Shanghai SIPPR-Bk Lab Animal Co., Ltd. All animals were housed under a regimen of 12 h light/12 h dark cycles and specific pathogen-free conditions. 5×10^6 NCI-H526, ES-2, MDA-MB231, A2780, A375, B16F10, and TMD-8 cells (0.1 ml) were injected subcutaneously into female nude mice. The melanoma patient-derived xenograft model was derived from a human melanoma sample (BRAF, NARS and NF1 wild type, and p53 mutant) removed from a patient in Xiangya Hospital. Surgically removed tumor fragments were implanted subcutaneously into female NSG mice. When the tumors grew to ~1000 mm^3, they were harvested and cryopreserved or immediately re-implanted for expansion or experiments. Mouse body weight and tumor sizes were measured every 3 days. Once the tumors grew to 150–200 mm^3, mice were treated with the compounds as described in the Figures. 1 × 10^6 A2780 cells (1 ml) were injected into the abdominal cavity of nude mice. Ascitic volume and tumor weight were measured by an electronic balance. All the procedures were evaluated and approved by the Institutional Animal Care and Use Committee of Central South University and Yale University.
Supplementary Figure 7. Pharmacokinetic profile of NHWD-870 using mouse and rat models.
(a,b) Plasma concentrations of NHWD-870 in healthy (a) mouse and (b) rat after intravenous (IV, 1.75 mg/kg for mouse and 1 mg/kg for rat) and oral (PO, 5 mg/kg) administration. Values shown on the right panels are mean ± SEM from 3 different animals. (c,d) Mean concentrations of NHWD-870 in the lungs (c) and tumors (d) of H526 xenograft model at the indicated hours after oral administration of 3 mg/kg NHWD-870 and BMS-98615821 on day 21. These mice were administrated the indicated drug daily for 21 days. Data are represented as mean ± SEM of 3 independent experiments. Source data are provided as a Source Data file. […]
9. In vivo pharmacokinetics study. Mouse and SD rat models were used to evaluate pharmacokinetic property of NHWD-870. NHWD-870 was administrated […]
Concentration of drugs in plasma, lung and tumor tissues were measured for the indicated time. […]

[2] = system: B16F10 mouse melanoma; experiment: B16F10 mouse melanoma syngeneic model tumor growth; type: in vivo, C57BL/6 mice; settings: B16F10 mouse melanoma, once daily 11 days, NHWD-870-HCl
From the text: PO, oral administration; QD, once daily; BID, twice daily. b–d Tumor growth curves for A2780 ovarian tumor (n = 5) (b), TMD8 large B cell lymphoma (n = 6) (c), and B16F10 melanoma (n = 5) (d) bearing mice treated with the indicated compounds once daily for 11-21 days. e, f Tumor growth curves for A375 melanoma (n = 6) (e), and patient-derived xenograft (PDX) of melanoma (n = 5) (f) bearing mice treated with the indicated compounds once daily (5 days on, 2 days off) for 21 days. For d–f, NHWD-870 used is NHWD-870-HCl synthesized using Suzuki coupling route. Data are presented as mean ± SEM in (a, b, d, f) and mean + SEM in (c, e). p values were calculated using two-tailed, unpaired t tests. *p < 0.05; **p < 0.01; ***p < 0.001. Source data are provided as a Source Data file.
as §1

[3] = male, BALB/c nude, plasma, IV 1.75 mg/kg
[4] = male, BALB/c nude, plasma, PO 5 mg/kg

SMILES: Cc1nnn(C)c1-c1cnc2c3c4cnn(C)c4ccc3n([C@H](c3ccccc3)C3CCOCC3)c2c1 [NHWD-870]
- AUCExtrap ([1]; IV 1.75 mg/kg): 3.87±2.125%
- T1/2 ([1]; IV 1.75 mg/kg, 1.75 mg/kg): 1.7 h
- Plasma concentration ([1]; IV 1.75 mg/kg, 5 min, individual mice, 1.75 mg/kg): 547 ng/mL and 518 ng/mL
- Plasma concentration ([1]; IV 1.75 mg/kg, 0.25 h, individual mice, 1.75 mg/kg): 431 ng/mL and 362 ng/mL
- Plasma concentration ([1]; IV 1.75 mg/kg, 0.5 h, individual mice, 1.75 mg/kg): 399 ng/mL and 272 ng/mL
- Plasma concentration ([1]; IV 1.75 mg/kg, 1 h, individual mice, 1.75 mg/kg): 295 ng/mL and 262 ng/mL
- Plasma concentration ([1]; IV 1.75 mg/kg, 2 h, individual mice, 1.75 mg/kg): 281 ng/mL and 264 ng/mL
- Plasma concentration ([1]; IV 1.75 mg/kg, 4 h, individual mice, 1.75 mg/kg): 215 ng/mL and 197 ng/mL
- Plasma concentration ([1]; IV 1.75 mg/kg, 8 h, individual mice, 1.75 mg/kg): 41.2 ng/mL and 70.8 ng/mL
- Plasma concentration ([1]; IV 1.75 mg/kg, 24 h, individual mice, 1.75 mg/kg): 0.876 ng/mL and 1.36 ng/mL
- AUCExtrap ([1]; PO 5 mg/kg): 3.04±0.685%
- F (%), oral bioavailability ([1]; PO 5 mg/kg, 5 mg/kg): 70%
- Plasma concentration ([1]; PO 5 mg/kg, 0.25 h, individual mice, 5 mg/kg): 515 ng/mL and 150 ng/mL and 133 ng/mL
- Plasma concentration ([1]; PO 5 mg/kg, 0.5 h, individual mice, 5 mg/kg): 630 ng/mL and 247 ng/mL and 269 ng/mL
- Plasma concentration ([1]; PO 5 mg/kg, 1 h, individual mice, 5 mg/kg): 688 ng/mL and 321 ng/mL and 337 ng/mL
- Plasma concentration ([1]; PO 5 mg/kg, 2 h, individual mice, 5 mg/kg): 593 ng/mL and 414 ng/mL
- Plasma concentration ([1]; PO 5 mg/kg, 4 h, individual mice, 5 mg/kg): 308 ng/mL and 354 ng/mL
- Plasma concentration ([1]; PO 5 mg/kg, 6 h, individual mice, 5 mg/kg): 62.6 ng/mL and 255 ng/mL and 189 ng/mL
- Plasma concentration ([1]; PO 5 mg/kg, 8 h, individual mice, 5 mg/kg): 37.2 ng/mL and 209 ng/mL and 111 ng/mL
- Plasma concentration ([1]; PO 5 mg/kg, 24 h, individual mice, 5 mg/kg): 0.953 ng/mL
- AUC(0-inf) [1, 3]: 993 ± 280 ng·h/mL
- AUC(0-t) [1, 3]: 939 ± 242 ng·h/mL
- C0 [1, 3]: 630 ± 70.5 ng/mL
- MRT inf [1, 3]: 2.22 ± 0.42 h
- clearance [1, 3]: 35 ± 7.45 mL/min/kg
- Vd ([1]; male, BALB/c nude, plasma, IV 1.75 mg/kg, read-out: Vdss): 4.17 ± 0.42 L/kg
- AUC(0-inf) [1, 4]: 2010 ± 165 ng·h/mL
- AUC(0-t) [1, 4]: 1950 ± 172 ng·h/mL
- Cmax [1, 4]: 467 ± 74 ng/mL
- MRT inf [1, 4]: 3.16 ± 0.24 h
- Tmax [1, 4]: 1.33 ± 0.29 h
- concentration at 24 h ([1]; male, BALB/c nude, plasma, PO 5 mg/kg, 24 h, individual mice, read-out: Plasma concentration): 1.94 ng/mL
- half-life ([1]; male, BALB/c nude, plasma, iv, 1.75 mg/kg, IV 1.75 mg/kg): 1.73 ± 0.325 h
- concentration at 5 min ([1]; male, BALB/c nude, plasma, iv, 1.75 mg/kg, IV 1.75 mg/kg, 5 min, individual mice, read-out: Plasma concentration): 614 ng/mL
- concentration at 5 min ([1]; male, BALB/c nude, plasma, iv, 1.75 mg/kg, IV 1.75 mg/kg, 5 min, mean of 3 mice, read-out: Plasma concentration, Mean): 560 ng/mL
- concentration at 0.25 h ([1]; male, BALB/c nude, plasma, iv, 1.75 mg/kg, IV 1.75 mg/kg, 0.25 h, individual mice, read-out: Plasma concentration): 491 ng/mL
- concentration at 0.25 h ([1]; male, BALB/c nude, plasma, iv, 1.75 mg/kg, IV 1.75 mg/kg, 0.25 h, mean of 3 mice, read-out: Plasma concentration, Mean): 428 ng/mL
- concentration at 0.5 h ([1]; male, BALB/c nude, plasma, iv, 1.75 mg/kg, IV 1.75 mg/kg, 0.5 h, individual mice, read-out: Plasma concentration): 388 ng/mL
- concentration at 0.5 h ([1]; male, BALB/c nude, plasma, iv, 1.75 mg/kg, IV 1.75 mg/kg, 0.5 h, mean of 3 mice, read-out: Plasma concentration, Mean): 353 ng/mL
- concentration at 1 h ([1]; male, BALB/c nude, plasma, iv, 1.75 mg/kg, IV 1.75 mg/kg, 1 h, individual mice, read-out: Plasma concentration): 417 ng/mL
- concentration at 1 h ([1]; male, BALB/c nude, plasma, iv, 1.75 mg/kg, IV 1.75 mg/kg, 1 h, mean of 3 mice, read-out: Plasma concentration, Mean): 325 ng/mL
- concentration at 2 h ([1]; male, BALB/c nude, plasma, iv, 1.75 mg/kg, IV 1.75 mg/kg, 2 h, individual mice, read-out: Plasma concentration): 362 ng/mL
- concentration at 2 h ([1]; male, BALB/c nude, plasma, iv, 1.75 mg/kg, IV 1.75 mg/kg, 2 h, mean of 3 mice, read-out: Plasma concentration, Mean): 302 ng/mL
- concentration at 4 h ([1]; male, BALB/c nude, plasma, iv, 1.75 mg/kg, IV 1.75 mg/kg, 4 h, individual mice, read-out: Plasma concentration): 190 ng/mL
- concentration at 4 h ([1]; male, BALB/c nude, plasma, iv, 1.75 mg/kg, IV 1.75 mg/kg, 4 h, mean of 3 mice, read-out: Plasma concentration, Mean): 201 ng/mL
- concentration at 8 h ([1]; male, BALB/c nude, plasma, iv, 1.75 mg/kg, IV 1.75 mg/kg, 8 h, individual mice, read-out: Plasma concentration): 50.2 ng/mL
- concentration at 8 h ([1]; male, BALB/c nude, plasma, iv, 1.75 mg/kg, IV 1.75 mg/kg, 8 h, mean of 3 mice, read-out: Plasma concentration, Mean): 54.1 ng/mL
- concentration at 24 h ([1]; male, BALB/c nude, plasma, iv, 1.75 mg/kg, IV 1.75 mg/kg, 24 h, individual mice, read-out: Plasma concentration): 0.937 ng/mL
- concentration at 24 h ([1]; male, BALB/c nude, plasma, iv, 1.75 mg/kg, IV 1.75 mg/kg, 24 h, mean of 3 mice, read-out: Plasma concentration, Mean): 1.06 ng/mL
- half-life ([1]; male, BALB/c nude, plasma, po, 5 mg/kg, PO 5 mg/kg): 1.29 ± 0.055 h
- concentration at 0.25 h ([1]; male, BALB/c nude, plasma, po, 5 mg/kg, PO 5 mg/kg, 0.25 h, mean of 3 mice, read-out: Plasma concentration, Mean): 266 ng/mL
- concentration at 0.5 h ([1]; male, BALB/c nude, plasma, po, 5 mg/kg, PO 5 mg/kg, 0.5 h, mean of 3 mice, read-out: Plasma concentration, Mean): 382 ng/mL
- concentration at 1 h ([1]; male, BALB/c nude, plasma, po, 5 mg/kg, PO 5 mg/kg, 1 h, mean of 3 mice, read-out: Plasma concentration, Mean): 449 ng/mL
- concentration at 2 h ([1]; male, BALB/c nude, plasma, po, 5 mg/kg, PO 5 mg/kg, 2 h, individual mice, read-out: Plasma concentration): 528 ng/mL
- concentration at 2 h ([1]; male, BALB/c nude, plasma, po, 5 mg/kg, PO 5 mg/kg, 2 h, mean of 3 mice, read-out: Plasma concentration, Mean): 512 ng/mL
- concentration at 4 h ([1]; male, BALB/c nude, plasma, po, 5 mg/kg, PO 5 mg/kg, 4 h, individual mice, read-out: Plasma concentration): 299 ng/mL
- concentration at 4 h ([1]; male, BALB/c nude, plasma, po, 5 mg/kg, PO 5 mg/kg, 4 h, mean of 3 mice, read-out: Plasma concentration, Mean): 320 ng/mL
- concentration at 6 h ([1]; male, BALB/c nude, plasma, po, 5 mg/kg, PO 5 mg/kg, 6 h, mean of 3 mice): 169 ng/mL
- concentration at 8 h ([1]; male, BALB/c nude, plasma, po, 5 mg/kg, PO 5 mg/kg, 8 h, mean of 3 mice, read-out: Plasma concentration, Mean): 119 ng/mL
- concentration at 24 h ([1]; male, BALB/c nude, plasma, po, 5 mg/kg, PO 5 mg/kg, 24 h, individual mice, read-out: Plasma concentration): 1.06 ng/mL
- concentration at 24 h ([1]; male, BALB/c nude, plasma, po, 5 mg/kg, PO 5 mg/kg, 24 h, mean of 3 mice, read-out: Plasma concentration, Mean): 1.32 ng/mL
- bioavailability ([1]; male, BALB/c nude, plasma, po, 5 mg/kg, PO 5 mg/kg, read-out: F (%), oral bioavailability): 70.8 ± 5.8%
- effect on tumor growth [2]: very strong tumor inhibitive effects
